Reference: PMC11995724, “Antibiotic target discovery by integrated phenotypic and activity-based profiling of electrophilic fragments” (Cell chemical biology, 2025)

Experiment: in vitro
Details: human, hek293t cells

Compound | viability at 48 h, 25 µM [%]
C=CCNC(=O)C(C#N)=Cc1c(C)nn(-c2ccc(F)cc2)c1Cl [9-L07, 3-[5-chloro-1-(4-fluorophenyl)-3-methyl-1H-pyrazol-4-yl]-2-cyano-N-(prop-2-en-1-yl)prop-2-enamide] | 91.8
N#CC(=Cc1cccs1)C(=O)NCc1ccco1 [9-L08, 2-cyano-N-[(furan-2-yl)methyl]-3-(thiophen-2-yl)prop-2-enamide] | 110
N#CC(=Cc1ccco1)C(=O)NC1CCN(c2ccc(F)cc2F)C1 (centres unmarked) [9-L09, 2-cyano-N-[1-(2,4-difluorophenyl)pyrrolidin-3-yl]-3-(furan-2-yl)prop-2-enamide] | 111
C=CCNC(=O)C(C#N)=Cc1cccc2ccccc12 [9-L10, 2-cyano-3-(naphthalen-1-yl)-N-(prop-2-en-1-yl)prop-2-enamide] | 96.5
N#CC(=Cc1cccs1)C(=O)Nc1ccccc1Cl [9-L11, N-(2-chlorophenyl)-2-cyano-3-(thiophen-2-yl)prop-2-enamide] | 112
N#CC(=Cc1ccc(OC(F)F)c(Cl)c1)C(N)=O [9-L12, 3-[3-chloro-4-(difluoromethoxy)phenyl]-2-cyanoprop-2-enamide] | 106
N#CC(=Cc1cccc(Cl)c1)C(=O)NCc1ccccc1 [9-L13, N-benzyl-3-(3-chlorophenyl)-2-cyanoprop-2-enamide] | 39.5
CNC(=O)C(C#N)=Cc1cccc(-c2ccncc2)c1 [9-L14, 2-cyano-N-methyl-3-[3-(pyridin-4-yl)phenyl]prop-2-enamide] | 108
Cn1cc(C=C(C#N)C(=O)Nc2ccccc2F)c(-c2ccncc2)n1 [9-L15, 2-cyano-N-(2-fluorophenyl)-3-[1-methyl-3-(pyridin-4-yl)-1H-pyrazol-4-yl]prop-2-enamide] | 130
Cn1cc(C=C(C#N)C(=O)NC2CCCC2)c(-c2ccncc2)n1 [9-L16, 2-cyano-N-cyclopentyl-3-[1-methyl-3-(pyridin-4-yl)-1H-pyrazol-4-yl]prop-2-enamide] | 119
COc1ccccc1C=CC=C(C#N)C(=O)Nc1ccccn1 [9-L17, 2-cyano-5-(2-methoxyphenyl)-N-(pyridin-2-yl)penta-2,4-dienamide] | 91.4
CC(=O)N(C)c1cccc(NC(=O)C(C#N)=Cc2ccco2)c1 [9-L18, 2-cyano-3-(furan-2-yl)-N-[3-(N-methylacetamido)phenyl]prop-2-enamide] | 104
N#CC1=C(N2CCOCC2)SC(c2cccc([N+](=O)[O-])c2)NC1=O (centres unmarked) [9-L19, 6-(morpholin-4-yl)-2-(3-nitrophenyl)-4-oxo-3,4-dihydro-2H-1,3-thiazine-5-carbonitrile] | 129
CC(C)Oc1ccccc1C=C(C#N)C(=O)Nc1ccc(Cl)cc1 [9-L20, N-(4-chlorophenyl)-2-cyano-3-[2-(propan-2-yloxy)phenyl]prop-2-enamide] | 89.4
CC(NC(=O)C(C#N)=Cc1ccc(C(F)(F)F)cc1)c1ccccc1 (centres unmarked) [9-L21, 2-cyano-N-(1-phenylethyl)-3-[4-(trifluoromethyl)phenyl]prop-2-enamide] | 2.11
CC(O)=C(C#N)C(=O)Nc1ccc(-c2ccccc2Cl)c(Cl)c1 [9-L22, 2-cyano-N-{2,2'-dichloro-[1,1'-biphenyl]-4-yl}-3-hydroxybut-2-enamide] | 117
N#CC(=Cc1cnn(Cc2ccccc2)c1)C(=O)Nc1nccs1 [9-M03, 3-(1-benzyl-1H-pyrazol-4-yl)-2-cyano-N-(1,3-thiazol-2-yl)prop-2-enamide] | 111
Cc1ccc(C=C(C#N)C(N)=O)c(C)c1 [9-M04, 2-cyano-3-(2,4-dimethylphenyl)prop-2-enamide] | 115
N#CC(=Cc1cccc2nccn12)C(=O)Nc1ccccc1 [9-M05, 2-cyano-3-{imidazo[1,2-a]pyridin-5-yl}-N-phenylprop-2-enamide] | 125
N#CC(=Cc1ccc(F)c(F)c1)C(=O)NC1CC1 [9-M06, 2-cyano-N-cyclopropyl-3-(3,4-difluorophenyl)prop-2-enamide] | 109
